For one data set, the system named is Gtfs. In words: Zymogram assay of Gtf enzymatic activity. Format: biochemical, S. mutans UA159. Particulars: compared to DMSO control.
The next data set relates to S. mutans growth. In words: S. mutans growth inhibition assay. Particulars: Streptococcus mutans, read-out: Growth MIC50. Format: cell-based, Streptococcus mutans UA159.
For data set [1], the system named is S. mutans UA159-induced dental caries. In words: Rat model of dental caries. Format: in vivo, Fischer 344 rats. Conditions: for bacterial colonization (cfu/mandible) / body weight over the course of the study: 100 μM twice daily for 4 weeks; for bacterial colonization (cfu/mandible): compared with control group treated with water; for body weight over the course of the study: in comparison with the control group; for oral tissue (mucosal and gingival tissues) at sacrifice: treated vs nontreated rats.

In the next data set the test system is S. mutans. In words: Cell viability / growth of S. mutans. Format: cell-based.
A further data set relates to S. gordonii. In words: Growth of commensal S. gordonii. Format: cell-based, Streptococcus gordonii DL1.
The next data set deals with S. sanguinis. In words: Growth of commensal S. sanguinis. Format: cell-based, Streptococcus sanguinis SK36.
The subject of another data set is S. mutans biofilm. In words: S. mutans biofilm formation and inhibition assay. Format: cell-based, Streptococcus mutans UA159. Conditions: for IC50: Streptococcus mutans.
In a further data set the test system is S. mutans colonization. In words: Sucrose-dependent drosophila colonization model. Format: in vivo. Conditions: 50 μM, feeding assay, after 7 days of infection.

≈ marks a conversion by molar mass, not a printed value. Like-named read-outs stand apart in the source and are kept apart here.

What is called MIC50 is an inhibitory concentration at the 50% level, which refers to growth in some studies and to a panel of isolates in others. For `Oc1ccc(/C=C/c2cc(O)cc(O)c2)cc1` [Compound 7, resveratrol], the “glucan production / Gtf inhibition in zymogram assay (in words)” value in the data set with Gtfs is on record as “marginal inhibition”. Also, the MIC50 with S. mutans growth turned out to be 546 ± 15.9 µM (≈ 125 µg/mL). In data set [1], the “bacterial colonization (cfu/mandible)” value is “not statistically significant”; the “body weight over the course of the study” value was “did not lose weight”; the “oral tissue (mucosal and gingival tissues) at sacrifice” value is “no obvious differences”.

What is called IC50 is the concentration needed to halve the response being measured. Turning to `Oc1cc(O)cc(/C=C/c2ccc(O)c(O)c2)c1` [Compound 8, piceatannol], the “viability of the biofilms and the planktonic cells” value in the data set on S. mutans (S. mutans) is “not significantly impacted”. The “inhibition of cell viability” value in the data set with S. mutans (S. mutans, at 400 μM) is recorded as 37%. Besides, the inhibition at 52 µM was less than 10% in the data set with S. mutans (Streptococcus mutans, read-out: growth inhibited); less than 10% in the data set with S. gordonii (Streptococcus gordonii, read-out: growth inhibited); less than 10% in the data set with S. sanguinis (Streptococcus sanguinis, read-out: growth inhibited). Moreover, the “decrease of cell density” value in the data set with S. gordonii (S. gordonii, at 400 μM) is 15–18%; with S. sanguinis (S. sanguinis, at 400 μM), 15–18%. Further, in the data set with S. mutans biofilm (read-out: Biofilm IC50, S. mutans biofilm, NI: no inhibition), the 50% inhibitory concentration (IC50) was determined as 52 ± 6 µM. Further, the “fluorescence in the guts of flies fed Gfp-tagged S. mutans” value with S. mutans colonization is reported as “significant decrease in fluorescence”. For the same molecule, the “glucan production / Gtf inhibition in zymogram assay (in words)” value in the data set on Gtfs is recorded as “greatly reduced glucan production”. In the data set with S. mutans growth, the MIC50 was 564 ± 37.8 µM (≈ 138 µg/mL). For the same molecule, the “bacterial colonization (cfu/mandible)” value in data set [1] is recorded as “not statistically significant”. Besides, the “body weight over the course of the study” value in data set [1] was “did not lose weight”. Also, the “oral tissue (mucosal and gingival tissues) at sacrifice” value in data set [1] is “no obvious differences”.

As to `O=C(/C=C/c1ccc(O)c(O)c1)O[C@@H]1C[C@](O)(C(=O)O)C[C@@H](O)[C@H]1O` [Compound 10], the concentration for half-maximal inhibition (IC50) with S. mutans biofilm (read-out: Biofilm IC50) was 518 ± 85 µM. In the data set on S. mutans biofilm (biofilm inhibition over growth inhibition of S. mutans), the Selectivity is 3.3. For the same molecule, in the data set with S. mutans growth, the MIC50 was 1720 ± 53 µM (≈ 611 µg/mL).
